Data published in patent US5874461A, “Use of Nebivolol as an anti-atherogenic” (priority 1995, dated 1999).

Key:
human LDL = experiment: In vitro oxidation of human LDL (Cu-induced conjugated diene formation at 234 nm); format: biochemical; conditions: in vitro
Experimental: In vitro oxidation of human LDL Human venous blood was collected on EDTA (2.68 mM final concentration). Plasma was isolated by centrifugation. NaBr (37.3 mg/ml) was added and solubulized (final density 1.036 g/ml). Centrifuge tubes were first filled to a level corresponding to 2/3 of their maximal volume, further filled with a NaBr solution of 1.036 g/ml and then centrifuged for 18 hours at 45000 rpm in a 50 Ti rotor (Beckmann). After centrifugation, floating lipoproteins were discarded. The remaining solution was adjusted to a density of 1.055 g/ml. Filling of the centrifuge tubes and centrifugation were repeated as described above. After centrifugation, floating LDL was dialysed against a buffer containing 127 mM NaCl, 8 mM Na2 HPO4.2H2 O, 2.7 mM KCl and 1.47 mM KH2 PO4 at pH 7.4. After dialysis, LDL was filtered though a Millipore filter (0.45 μM) and protein content was determined. A dilution of 25 μg/ml was prepared with a millipored dialysis buffer. Oxidation was determined in a Pharmacia Ultraspec III spectrophotometer. Conjugated diene formation was registered at 234 nm. Two μl of a drug or solvent (DMSO) were added to Eppendorf tubes followed by 1 ml of LDL (25 μg/ml) and these substances were gently mixed and centrifuged for 1 min at 13000 g. The solution was pipetted in a Quartz cuvet that was thermostatised in the spectrophotometer at 37° C. After equilibration, the oxidation reaction was started by the addition of CuSO4 (final concentration 10 μM). Absorbance was measured every 3 minutes during the time course of the experiment. The absorbance at 234 nm was divided into three phases: a lag phase, a propagation phase and a decomposition phase (FIG. 1). The lag phase was defined as the intercept with the baseline of the tangent of the slope of the absorbance curve of the propagation phase. The rate of oxidation was defined as the tangent of the slope. Tmax was defined as the time required to attain the maximum absorbance between the propagation and the decomposition phase. The absorbance at tmax minus the absorbance at to was taken as an indicator of the total amount of dienes formed. To verify the reproducibility of the assay, a reference LDL sample was prepared and kept in darkness under nitrogen at 4° C. This reference sample was included in every oxidation experiment. LDL was isolated from 23 subjects. Plasma cholesterol ranged from 156 to 278 mg/dl (mean 213 mg/dl), triglycerides ranged from 47 to 328 mg/dl (mean 191 mg/dl) and phospholipids ranged from 178 to 327 mg/dl (mean 231 mg/dl).

[1] = system: rats (age-associated vascular pathology); experiment: In-vivo anti-atheromatic effect: 24-month oral study in rats, histological score of vascular degeneration/aging
Experimental: In order to verify whether nebivolol had any effects on age-associated vascular pathology, a number of rats were administered nebivolol orally at dosages of 0 (carrier-only), 2.5, 10 and 40 mg/kg during 24 months. As a carrier there was used 2-hydroxypropyl-β-cyclodextrin which improves the bioavailability of nebivolol. At each dose a male and a female group of 50 were entered in the 2 year study. […] The test animals were autopsied and observed for histological non-neoplastic changes.
vasculopathy of the abdominal mesothelia, pancreas, and testis,
focal and diffuse hyperplasia of the parathyroid gland, and
the renal histology, in particular the number of basophilic tubuli, evidence for chronic renal disease and for mineralization.
Histopathological observations received a score from 0 to 3 as follows:
0: no histological change
1: slight histological change
2: moderate histological change
3: severe histological change.
For each observation a mean score was calculated. The observed ratings were analysed using the Mann-Whitney U test (two tailed probability) to detect statistically significant differences between the control groups and the treated groups. Significance computed by Mann-Whitney U test two-tailed: * p<0.05 ** p<0.01 p<0.001.

[2] = system: spontaneous hypertensive rats; conditions: acute; cited from earlier work
anaesthetized dogs = conditions: anaesthesized dogs; cited from earlier work
[3] = females, 2.5 mg/kg oral, 24 months
[4] = females, 10 mg/kg oral, 24 months
[5] = females, 40 mg/kg oral, 24 months
[6] = males, 2.5 mg/kg oral, 24 months
[7] = males, 10 mg/kg oral, 24 months
[8] = males, 40 mg/kg oral, 24 months

Compound: O[C@H](CNC[C@@H](O)[C@H]1CCc2cc(F)ccc2O1)[C@@H]1CCc2cc(F)ccc2O1 (relative stereo) [nebivolol, (RSSS) and (SRRR) α,α'-iminobis(methylene)bis[6-fluoro-2-chroman-methanol]]
- antioxidative effect on human LDL (human LDL): no antioxidative effect
- normal aging of the vascular system ([1]; chronic treatment, versus control animals): the normal aging of the vascular system as seen in the control animals is suppressed
- Kidney: basophilic tubuli, mean score (0-3) [1, 3]: 0.18
- Kidney: chronic disease, mean score (0-3) [1, 3]: 0.88
- Kidney: mineralization (parenchum/pelvis), mean score (0-3) [1, 3]: 0.84
- Pancreas: vasculopathy, mean score (0-3) [1, 3]: 0.04
- Kidney: basophilic tubuli, mean score (0-3) [1, 4]: 0.18
- Kidney: chronic disease, mean score (0-3) [1, 4]: 0.92
- Kidney: mineralization (parenchum/pelvis), mean score (0-3) [1, 4]: 0.64
- Pancreas: vasculopathy, mean score (0-3) [1, 4]: 0.02
- Kidney: basophilic tubuli, mean score (0-3) [1, 5]: 0.42
- Kidney: chronic disease, mean score (0-3) [1, 5]: 0.78
- Kidney: mineralization (parenchum/pelvis), mean score (0-3) [1, 5]: 0.14
- Pancreas: vasculopathy, mean score (0-3) [1, 5]: 0.00
- Kidney: basophilic tubuli, mean score (0-3) [1, 6]: 0.18
- Kidney: chronic disease, mean score (0-3) [1, 6]: 1.32
- Pancreas: vasculopathy, mean score (0-3) [1, 6]: 0.04
- Parathyroid gland: diffuse hyperplasia, mean score (0-3) [1, 6]: 0.08
- Parathyroid gland: focal hyperplasia, mean score (0-3) [1, 6]: 0.04
- Testis: vasculopathy, mean score (0-3) [1, 6]: 0.20
- Kidney: basophilic tubuli, mean score (0-3) [1, 7]: 0.18
- Kidney: chronic disease, mean score (0-3) [1, 7]: 1.24
- Pancreas: vasculopathy, mean score (0-3) [1, 7]: 0.02
- Parathyroid gland: diffuse hyperplasia, mean score (0-3) [1, 7]: 0.15
- Parathyroid gland: focal hyperplasia, mean score (0-3) [1, 7]: 0.02
- Testis: vasculopathy, mean score (0-3) [1, 7]: 0.08
- Abdominal mesothelia: vasculopathy, mean score (0-3) [1, 8]: 0.00
- Kidney: basophilic tubuli, mean score (0-3) [1, 8]: 0.60
- Kidney: chronic disease, mean score (0-3) [1, 8]: 0.66
- Pancreas: vasculopathy, mean score (0-3) [1, 8]: 0.00
- Parathyroid gland: diffuse hyperplasia, mean score (0-3) [1, 8]: 0.02
- Parathyroid gland: focal hyperplasia, mean score (0-3) [1, 8]: 0.00
- Testis: vasculopathy, mean score (0-3) [1, 8]: 0.02
- blood pressure [2]: acutely lowers blood pressure
- stroke volume (anaesthetized dogs): augments stroke volume
- total peripheral vascular resistance (anaesthetized dogs): decreases total peripheral vascular resistance
